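Method: 48-hour compound exposure of cells in 96-well plates, five concentrations, linear interpolation of endpoints. Definition used: TGI = concentration required for complete inhibition of growth.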
How the values were obtained:
Assay in all cases: NCI anticancer screen, dose series, 48 h
786-0 renal = tested on: 786-0 renal
A498 renal = tested on: A498 renal
A549 NSCLC = tested on: A549 NSCLC
ACHN renal = tested on: ACHN renal
BT-549 breast = tested on: BT-549 breast
CAKI-1 renal = tested on: CAKI-1 renal
CCRF-CEM leukemia = tested on: CCRF-CEM leukemia
COLO 205 colon = tested on: COLO 205 colon
DU-145 prostate = tested on: DU-145 prostate
EKVX NSCLC = tested on: EKVX NSCLC
HCC-2998 colon = tested on: HCC-2998 colon
HCT-116 colon = tested on: HCT-116 colon
HCT-15 colon = tested on: HCT-15 colon
HL-60(TB) leukemia = tested on: HL-60(TB) leukemia
HOP-62 NSCLC = tested on: HOP-62 NSCLC
HOP-92 NSCLC = tested on: HOP-92 NSCLC
HS 578T breast = tested on: HS 578T breast
HT29 colon = tested on: HT29 colon
IGROV1 ovarian = tested on: IGROV1 ovarian
K-562 leukemia = tested on: K-562 leukemia
KM12 colon = tested on: KM12 colon
LOX IMVI melanoma = tested on: LOX IMVI melanoma
M14 melanoma = tested on: M14 melanoma
MALME-3M melanoma = tested on: MALME-3M melanoma
MCF7 breast = tested on: MCF7 breast
MDA-MB-435 = tested on: MDA-MB-435
MDA-N = tested on: MDA-N
MOLT-4 leukemia = tested on: MOLT-4 leukemia
NCI-H226 lung = tested on: NCI-H226 lung
NCI-H23 lung = tested on: NCI-H23 lung
NCI-H460 lung = tested on: NCI-H460 lung
NCI-H522 lung = tested on: NCI-H522 lung
NCI/ADR-RES ovarian = tested on: NCI/ADR-RES ovarian
OVCAR-3 ovarian = tested on: OVCAR-3 ovarian
OVCAR-4 ovarian = tested on: OVCAR-4 ovarian
OVCAR-5 ovarian = tested on: OVCAR-5 ovarian
OVCAR-8 ovarian = tested on: OVCAR-8 ovarian
PC-3 prostate = tested on: PC-3 prostate
RPMI-8226 leukemia = tested on: RPMI-8226 leukemia
RXF 393 renal = tested on: RXF 393 renal
SF-268 CNS = tested on: SF-268 CNS
SF-295 CNS = tested on: SF-295 CNS
SF-539 CNS = tested on: SF-539 CNS
SK-MEL-2 melanoma = tested on: SK-MEL-2 melanoma
SK-MEL-28 melanoma = tested on: SK-MEL-28 melanoma
SK-MEL-5 melanoma = tested on: SK-MEL-5 melanoma
SN12C renal = tested on: SN12C renal
SNB-19 CNS = tested on: SNB-19 CNS
SNB-75 CNS = tested on: SNB-75 CNS
SR leukemia = tested on: SR leukemia
SW-620 colon = tested on: SW-620 colon
T-47D breast = tested on: T-47D breast
TK-10 renal = tested on: TK-10 renal
U251 CNS = tested on: U251 CNS
UACC-257 melanoma = tested on: UACC-257 melanoma
UACC-62 melanoma = tested on: UACC-62 melanoma
UO-31 renal = tested on: UO-31 renal

Measured: TGI

O=C(O)C1CCCN1C(=O)c1cc(Cl)ccn1 (configuration not stated)
> 100 µM: all assays above

Reference: PubChem BioAssay (NCI)
